For orientation: Ki means a dissociation constant, usually derived from enzyme kinetics or from competition with a known ligand. A lower Ki goes with higher affinity. In general, half-life refers to the time needed for the level to fall by half in the phase considered. Read a high half-life as slow decline.

Consider 4 molecules from ChEMBL document CHEMBL1123699, “Selective cytotoxicity of a system L specific amino acid nitrogen mustard” (J Med Chem, 1987).

Data set [1] concerns CFU-C. The data set is described as follows: Lethal dose was determined for […] activity against […]. It is filed as toxicity, cell-based. Conditions: mouse.
The subject of data set [2] is L1210. Put plainly: Inhibitory activity against murine leukemia cells (L1210) was determined. Format: functional, cell-based, Mus musculus.
Data set [3] deals with L1210. Put plainly: Lethal dose was determined for […] activity against murine leukemia cells (L1210). Format: toxicity, cell-based. The note with it: mouse.
Data set [4] can be described thus: Therapeutic index is the ratio of LD90 of CFU-C to LD90 of L1210 cell lines. Format: cell-based. The note with it: mouse, CFU-C and L1210 cells.
The conditions of data set [5]: rat.
Data set [6] deals with L1210. The data set is described as follows: Inhibitory activity against leucine-preferring transport system (system L) was determined in murine leukemia L1210 cell lines. It is filed as functional, cell-based, Mus musculus.

Take `NC1(C(=O)O)CCc2ccc(N(CCCl)CCCl)cc2C1` (stereo not given): the LD90 in data set [1] is 26.5 µM; in data set [3], 23.8 µM. The Ki in data set [2] was 0.22 µM. Moreover, the selectivity ratio in data set [4] was 0.9. The molecule also showed a half-life in data set [5] of 40 min.

Molecule `NC1(C(=O)O)CCc2c(cccc2N(CCCl)CCCl)C1` (stereo not given) came in with a Ki in data set [6] of 15.2 µM.

With `NC1(C(=O)O)CCc2ccccc2C1` (stereo not given), the Ki in data set [6] amounted to 5 µM. This Ki lies about 3-fold lower than the previous one.

For `N[C@@H](Cc1ccc(N(CCCl)CCCl)cc1)C(=O)O` [MELPHALAN], the LD90 in data set [1] came out at 14 µM; in data set [3], 35 µM. Moreover, the affinity in data set [2] corresponds to a Ki of 112 µM.
